Test results from patent US11225481B2 (Centre national de la recherche scientifique, priority 2015, dated 2022).
“And” between values parts separate entries of the source, which are not always exact repeats. Equal values may be shown once. Read-outs that look alike come from different tables or passages of the source.

Assays:
BRD3(BD1) = target: T1, BRD3(BD1) (Homo sapiens, UniProt Q15059); experiment: HTRF bromodomain selectivity profile; assay type: binding; settings: Table 3 selectivity profile
T1 construct: purchased BPS Bioscience
T1 sequence (Q15059 34-140 limits assumed): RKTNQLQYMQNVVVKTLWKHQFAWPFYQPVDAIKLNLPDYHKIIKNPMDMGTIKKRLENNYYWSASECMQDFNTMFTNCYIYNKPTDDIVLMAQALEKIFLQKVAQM
Experimental: (§1) Compounds were dispensed, with 200 nL per well (1% final DMSO), from a concentration stock of 1 mM in 100% DMSO and with serial DMSO dilutions, using a Mosquito Crystal pipetting robot platform (TTP labtech). […] All HTRF reagents were purchased from CisBio Bioassays and reconstituted according to the supplier protocols. For each assay 14.7 μL of mix 1 (protein+peptide) is added in the assay wells, containing previously dispensed inhibitors, according to the final concentration and buffer described in Table 4, using a Biomek NX MC pipetting robot (Beckman). Then, 5.1 μL of mix 2 (donnor+acceptor) is added. HTRF signals were measured, after a final incubation (overnight at room temperature), using a PHERAstar FS (BMG Labtech) with an excitation filter at 337 nm and fluorescence wavelength measurement at 620 and 665 nm, an integration delay of 60 μs and an integration time of 500 μs. Results were analyzed with a two-wavelengths signal ratio: […] Percentage of inhibition was calculated using the following equation: % inhibition=[(compound signal)−(min signal)]/[(max signal)−(min signal)]*100, where ‘max signal’ is the signal ratio with the compound vehicle alone (DMSO) and ‘min signal’ the signal ratio without peptide. For IC50 measurements, values were normalized and fitted with Prism (GraphPad software) using the following equation: […] Selectivity profiles of bromodomain inhibitors were performed as described in HTRF screen section. […] HTRF detection reagents (EPIgeneous™ Binding Domain kits) were purchased from Cisbio Bioassays and used according to supplier's protocol. GST tagged bromodomain proteins were purchased from BPS Bioscience and histone peptide from Anaspec. [table]

BRD3(BD2) = target: T2, BRD3(BD2) (Homo sapiens, UniProt Q15059); experiment: HTRF bromodomain selectivity profile; assay type: binding; settings: Table 3 selectivity profile
T2 construct: purchased BPS Bioscience
T2 sequence (Q15059 306-415 limits assumed): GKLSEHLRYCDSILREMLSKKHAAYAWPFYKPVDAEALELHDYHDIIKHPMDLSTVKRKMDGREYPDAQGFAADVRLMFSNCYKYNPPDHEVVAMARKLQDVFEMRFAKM
Experimental: as §1

BRD4(BD1) [1] = target: T3, BRD4(BD1) (Homo sapiens, UniProt O60885); experiment: HTRF assay, disruption of bromodomain/histone peptide interaction; assay type: binding; settings: for LE (Ligand Efficiency): LE = 1.4(−log(IC50)/N), BRD4(BD1)
T3 construct: a BRD4(BD1) synthetic gene that includes a TEV cleavage site was purchased from LifeTechnology; made in house
Experimental: (§2) HTRF assays were performed in white 384 Well Small Volume™ HiBase Polystyrene Microplates (Greiner) with a total working volume of 20 μL. Compounds were dispensed, with 200 nL per well (1% final DMSO), from a concentration stock of 1 mM in 100% DMSO and with serial DMSO dilutions, using a Mosquito Crystal pipetting robot platform (TTP labtech). The IC50 measurements were performed in triplicates (Table 2 and 3). All HTRF reagents were purchased from CisBio Bioassays and reconstituted according to the supplier protocols. For each assay 14.7 μL of mix 1 (protein+peptide) is added in the assay wells, containing previously dispensed inhibitors, according to the final concentration and buffer described in Table 4, using a Biomek NX MC pipetting robot (Beckman). Then, 5.1 μL of mix 2 (donnor+acceptor) is added. HTRF signals were measured, after a final incubation (overnight at room temperature), using a PHERAstar FS (BMG Labtech) with an excitation filter at 337 nm and fluorescence wavelength measurement at 620 and 665 nm, an integration delay of 60 μs and an integration time of 500 μs. Results were analyzed with a two-wavelengths signal ratio: [intensity (665 nm)/intensity (620 nm)]*10^4. Percentage of inhibition was calculated using the following equation: % inhibition=[(compound signal)−(min signal)]/[(max signal)−(min signal)]*100, where ‘max signal’ is the signal ratio with the compound vehicle alone (DMSO) and ‘min signal’ the signal ratio without peptide.
(§3) For Isothermal Titration Calorimetry (ITC) and crystallogenesis, BRD4(BD1) was produced and purified using a histidine tag affinity chromatography as described by Filipakopoulos et al.9 For these experiments, a pNIC28-BSA4 expression vector containing BRD4(BD1) and a Tobacco Etch Virus (TEV) protease cleavage site have kindly been provided by Stefan Knapp laboratory from the SGC at the University of Oxford. After size exclusion chromatography, the fractions presenting pure BRD4(BD1) after TEV cleavage of the histidine tag were pooled and concentrated to 25 mg/mL for crystallogenesis. For ITC assays, the protein was concentrated up to at 6 mg/mL and the DTT was removed using a buffer exchange column (PD10 from GE healthcare) equilibrated with 10 mM HEPES pH=7.5, 150 mM NaCl. For Homogeneous Time Resolved Fluorimetry (HTRF) experiments, a BRD4(BD1) synthetic gene that includes a TEV cleavage site was purchased from LifeTechnology in a pDONR transport vector before cloning into a pDESTTM15 expression vector for GST affinity purification. Protein production and purification was carried out using similar protocols and buffers as used for the His-BRD4(BD1) system. Purification was carried on GST affinity resin (Thermo Scientific) and reduced glutathione was used for protein release. GST-BRD4(BD1) was further purified by size exclusion chromatography on a Superdex 16/60 Hiload column (GE Healthcare) using 20 mM TRIS pH=8.0, 150 mM NaCl Buffer.

BRD2(BD2) = target: T4, BRD2(BD2) (Homo sapiens, UniProt P25440); experiment: HTRF bromodomain selectivity profile; assay type: binding; settings: Table 3 selectivity profile
T4 construct: purchased BPS Bioscience
T4 sequence (P25440 344-453 limits assumed): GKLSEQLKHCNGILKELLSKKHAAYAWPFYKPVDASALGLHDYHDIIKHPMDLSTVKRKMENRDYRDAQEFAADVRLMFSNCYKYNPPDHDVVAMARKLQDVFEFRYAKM
Experimental: as §2
(§4) Selectivity profiles of bromodomain inhibitors were performed as described in HTRF screen section. […] HTRF detection reagents (EPIgeneous™ Binding Domain kits) were purchased from Cisbio Bioassays and used according to supplier's protocol. GST tagged bromodomain proteins were purchased from BPS Bioscience and histone peptide from Anaspec.

BRD2(BD1) = target: T5, BRD2(BD1) (Homo sapiens, UniProt P25440); experiment: HTRF bromodomain selectivity profile; assay type: binding; settings: Table 3 selectivity profile
T5 construct: purchased BPS Bioscience
T5 sequence (P25440 74-180 limits assumed): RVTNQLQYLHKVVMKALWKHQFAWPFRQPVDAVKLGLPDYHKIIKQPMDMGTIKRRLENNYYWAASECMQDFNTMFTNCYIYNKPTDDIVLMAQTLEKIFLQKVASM
Experimental: as §2, §4

BRD4(BD2) = target: T6, BRD4(BD2) (Homo sapiens, UniProt O60885); experiment: HTRF bromodomain selectivity profile; assay type: binding; settings: Table 3 selectivity profile
T6 construct: purchased BPS Bioscience
Experimental: as §2, §4

BRDT(BD1) = target: T7, BRDT(BD1) (Homo sapiens, UniProt Q58F21); experiment: HTRF bromodomain selectivity profile; assay type: binding; settings: Table 3 selectivity profile
T7 construct: purchased BPS Bioscience
Experimental: as §2, §4

ATAD2 = target: T8, ATAD2 (Homo sapiens, UniProt Q6PL18); experiment: HTRF bromodomain selectivity profile, non-BET control; assay type: binding; settings: non-BET family member bromodomain control
T8 construct: GST tagged bromodomain proteins were purchased from BPS Bioscience; purchased BPS Bioscience
T8 sequence (Q6PL18 980-1092 limits assumed): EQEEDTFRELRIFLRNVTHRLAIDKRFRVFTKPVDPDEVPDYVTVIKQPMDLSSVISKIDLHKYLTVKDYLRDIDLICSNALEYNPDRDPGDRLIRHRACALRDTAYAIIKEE
Experimental: as §2, §4

BET bromodomains = experiment: Selectivity profile across BET bromodomains (HTRF); assay type: binding; settings: in words
Experimental: as §4

BRD4(BD1) [2] = target: T3, BRD4(BD1); experiment: Isothermal Titration Calorimetry; assay type: binding
Description: as §3
ITC was used to evaluate the thermodynamics parameters of the binding between BRD4(BD1) and the selected compounds, using ITC conditions previously described by Filippakopoulos et al.8 Purified BRD4(BD1) was extensively dialyzed in the ITC buffer containing 10 mM Hepes pH=7.5 and 150 mM NaCl. Compounds were diluted directly in the last protein dialysate prior to experiments. Titrations were carried out on a MicroCal ITC200 microcalorimeter (GE Healthcare, Piscataway, N.J.). Each experiment was designed using a titrant concentration (protein in the syringe) set 10 to 15 times the analyte concentration (compound in the cell generally between 10 and 35 μM) and using 13 injections at 35° C. A first small injection (generally 0.2 μL) was included in the titration protocol in order to remove air bubbles trapped in the syringe prior titration. Raw data were scaled after setting the zero to the titration saturation heat value. Integrated raw ITC data were fitted to a one site non-linear least squares fit model using the MicroCal Origin plugin as implemented in Origin 7 (Origin Lab). Finally, ΔG and TΔS values were calculated from the fitted ΔH and KA values using the equations ΔG=−R.T. ln KA and ΔG=ΔH−TΔS.

acute leukemia = settings: patients, phase I acute leukemia study; cited from earlier work
[3] = system: BD2 domain of BRD2 and BRD3; settings: cited from earlier work
[4] = HTRF, mean ± SD of three experiments, Table 2, read-out: IC50 μM, effect on BRD4(BD1) activity
[5] = HTRF, Table 1′, TABLE 2, read-out: BRD4(BD1) IC50
[6] = Table 3 selectivity profile, mean ± SD of three experiments, read-out: IC50 (μM) BRD4(BD1)

| Compound | IC50 (BRD3(BD1)) [µM] | IC50 (BRD3(BD2)) [µM] | IC50 (BRD4(BD1) [1]; [4]) [µM] | IC50 (BRD2(BD2)) [µM] | IC50 (BRD2(BD1)) [µM] | IC50 (BRD4(BD2)) [µM] | IC50 (BRDT(BD1)) [µM] | IC50 (ATAD2) [µM] | selectivity profile among BET bromodomains (BET bromodomains) | IC50 (BRD4(BD1) [1]; [5]) | LE (Ligand Efficiency) (BRD4(BD1) [1]) | IC50 (BRD4(BD1) [1]; [6]) [µM] | fold increased potency (7a vs 6a) (BRD4(BD1) [1]; HTRF IC50 BRD4(BD1)) [fold] | enthalpy change (BRD4(BD1) [2]; ITC, BRD4(BD1)) [kcal/mol] | Kd (BRD4(BD1) [2]; Isothermal Titration Calorimetry) [µM] | fold decrease in potency as compared to 7a (BRD4(BD1) [1]; HTRF IC50 BRD4(BD1)) [fold] | clinical response (acute leukemia) | bromodomain binding preference [3] |
| --- | --- | --- | --- | --- | --- | --- | --- | --- | --- | --- | --- | --- | --- | --- | --- | --- | --- | --- |
| Cn1cnc2c1c(=O)[nH]c(=O)n2Cc1ccc(Cl)cc1 [Compound 4b] | 14 | 4 | 9 | 7 | > 100 | 5 | 27 | – | – | – | – | – | – | – | – | – | – | – |
| CCCCn1c(=O)[nH]c(=O)c2c1ncn2CC [Compound 6a, 3-Butyl-7-ethylxanthine] | 4.8 ± 0.3 | 5.8 ± 0.2 | 13 | 6.6 ± 0.3 | 18.8 ± 0.7 | 8.1 ± 0.3 | 7.9 ± 0.4 | > 100 | pan-BET inhibition profile | 13 ± 0.3 µM | 0.40 | 13 ± 0.3 | – | – | – | – | – | – |
| CCn1cnc2c1c(=O)[nH]c(=O)n2Cc1ccc(Cl)cc1 [Compound 7a] | 1.8 ± 1.1 | 1.8 ± 0.2 | 2.6 | 1.6 ± 0.2 | 4.7 ± 0.1 | 1.9 ± 0.1 | 2.3 ± 0.2 | > 100 | pan-BET inhibition profile | 2.6 µM | 0.37 | 2.6 ± 0.1 | 2 | -6.3 | 1.8 | – | – | – |
| CCn1c(CSc2n[nH]c(N)n2)nc2c1c(=O)[nH]c(=O)n2Cc1ccc(Cl)cc1 [Compound 22a, 8-(5-Amino-1H-[1,2,4]triazol-3-ylsulfanylmethyl)-3-(4-chlorobenzyl)-7-ethyl-3,7-dihydro-purine-2,6-dione] | 31.7 ± 1.1 | – | 26.4 | – | 30 ± 0.9 | – | – | – | shift of selectivity towards BET-BD1 domains | 26.4 µM | 0.17 | 26.4 ± 0.7 | – | – | – | 10 | – | – |
| CCn1c(CSc2nc3nc(C)cc(C)n3n2)nc2c1c(=O)[nH]c(=O)n2Cc1ccc(Cl)cc1 [Compound 25a] | 40.7 ± 2.2 | 23.9 ± 1.4 | 12.6 | > 100 | 30.1 ± 1.3 | > 100 | 65.3 ± 8.1 | > 100 | – | – | – | – | – | – | – | – | – | – |
| CCc1cc(CC)n2nc(SCc3nc4c(c(=O)[nH]c(=O)n4Cc4ccc(Cl)cc4)n3CC)nc2n1 [Compound 26a] | 43.5 ± 7.1 | 2.1 ± 0.5 | 7.9 | 9.5 ± 0.5 | 31.9 ± 0.5 | > 100 | 42.5 ± 3.9 | 56.4 ± 7.9 | – | – | – | – | – | – | – | – | – | – |
| CCCCc1c(C)nc2nc(SCc3nc4c(c(=O)[nH]c(=O)n4Cc4ccc(Cl)cc4)n3CC)nn2c1C [Compound 27b, 8-(6-Butyl-5,7-dimethyl-[1,2,4]triazolo[1,5-a]pyrimidin-2-ylsulfanylmethyl)-3-(4-chlorobenzyl)-7-ethyl-3,7-dihydro-purine-2,6-dione] | – | – | 20.4 | – | – | – | – | – | selective towards BRD4(BD1) | 20 µM and 20.4 µM | 0.15 | 20.4 ± 3.6 | – | – | – | – | – | – |
| Cc1sc2c(c1C)C(c1ccc(Cl)cc1)=N[C@@H](CC(=O)Nc1ccc(O)cc1)c1nnc(C)n1-2 [OTX015, (6S)-4-(4-chlorophenyl)-N-(4-hydroxyphenyl)-2,3,9-trimethyl-6H-thieno[3,2-f][1,2,4]triazolo[4,3-a][1,4]diazepine-6-acetamide] | – | – | – | – | – | – | – | – | – | – | – | – | – | – | – | – | induced remissions, including complete remission in two patients with refractory disease | – |
| COc1cc(OC)c2c(=O)[nH]c(-c3cc(C)c(OCCO)c(C)c3)nc2c1 [RVX-208, 2-[4-(2-hydroxyethoxy)-3,5-dimethylphenyl]-5,7-dimethoxy-4(3H)-quinazolinone] | – | – | – | – | – | – | – | – | – | – | – | – | – | – | – | – | – | binds preferentially to the BD2 domain of BRD2 and BRD3 |
